# Laboratory results reported in ChEMBL document CHEMBL3616377, “2-(3'-Indolyl)-N-arylthiazole-4-carboxamides: Synthesis and evaluation of antibacterial and anticancer activities” (Bioorg Med Chem Lett, 2015).
# The source made the active and inactive calls. The rule behind the calls is not given here.
# What was measured:
# Staphylococcus aureus [1] = experiment: Antibacterial activity against Staphylococcus aureus MTCC 96 after 18 to 24 hrs by broth microdilution method; assay type: functional
# Staphylococcus aureus [2] = experiment: Antibacterial activity against Staphylococcus aureus MTCC 96 after 18 to 24 hrs by agar well diffusion method; assay type: functional
# Bacillus subtilis [3] = experiment: Antibacterial activity against Bacillus subtilis MTCC 121 after 18 to 24 hrs by agar well diffusion method; assay type: functional
# Bacillus subtilis [4] = experiment: Antibacterial activity against Bacillus subtilis MTCC 121 after 18 to 24 hrs by broth microdilution method; assay type: functional
# Escherichia coli [5] = experiment: Antibacterial activity against Escherichia coli MTCC 1652 after 18 to 24 hrs by agar well diffusion method; assay type: functional
# Escherichia coli [6] = experiment: Antibacterial activity against Escherichia coli MTCC 1652 after 18 to 24 hrs by broth microdilution method; assay type: functional
# Pseudomonas putida [7] = experiment: Antibacterial activity against Pseudomonas putida MTCC 102 after 18 to 24 hrs by agar well diffusion method; assay type: functional
# Pseudomonas putida [8] = experiment: Antibacterial activity against Pseudomonas putida MTCC 102 after 18 to 24 hrs by broth microdilution method; assay type: functional
# [9] = Solubility of the compound in 0.05 to 0.1% DMSO; assay type: physicochemical
# HeLa [10] = experiment: Cytotoxicity against human HeLa cells after 48 hrs by MTT assay in absence of 10% FBS; assay type: functional, cell-based
# PC-3 [11] = experiment: Cytotoxicity against human PC3 cells after 48 hrs by MTT assay in absence of 10% FBS; assay type: functional, cell-based; settings: PC-3, 48 h
# MDA-MB-231 [12] = experiment: Cytotoxicity against human MDA-MB-231 cells after 48 hrs by MTT assay in absence of 10% FBS; assay type: functional, cell-based; settings: MDA-MB-231, 48 h
# LNCaP [13] = experiment: Cytotoxicity against human LNCAP cells after 48 hrs by MTT assay in absence of 10% FBS; assay type: functional, cell-based
# HEK-293T [14] = experiment: Cytotoxicity against human HEK293T cells after 48 hrs by MTT assay in presence of 10% FBS; assay type: cell-based
# [15] = Cytotoxicity against human castration-resistant C4-2 cells after 48 hrs by MTT assay in presence of 10% FBS; assay type: functional, cell-based; settings: LNCaP C4-2, 48 h
# HeLa [16] = experiment: Cytotoxicity against human HeLa cells after 48 hrs by MTT assay in presence of 10% FBS; assay type: functional, cell-based
# PC-3 [17] = experiment: Cytotoxicity against human PC3 cells after 48 hrs by MTT assay in presence of 10% FBS; assay type: functional, cell-based; settings: PC-3, 48 h
# MDA-MB-231 [18] = experiment: Cytotoxicity against human MDA-MB-231 cells after 48 hrs by MTT assay in presence of 10% FBS; assay type: functional, cell-based; settings: MDA-MB-231, 48 h
# LNCaP [19] = experiment: Cytotoxicity against human LNCAP cells after 48 hrs by MTT assay in presence of 10% FBS; assay type: functional, cell-based
# HEK-293T [20] = experiment: Cytotoxicity against human HEK293T cells after 48 hrs by MTT assay in absence of 10% FBS; assay type: cell-based
# [21] = Cytotoxicity against human castration-resistant C4-2 cells after 48 hrs by MTT assay in absence of 10% FBS; assay type: functional, cell-based; settings: LNCaP C4-2, 48 h
# Escherichia coli [22] = experiment: Bactericidal activity against Escherichia coli MTCC 1652 assessed as reduction of number of bacterial cells at 4 times MIC after 1 to 6 hrs; assay type: functional, organism-based
# Pseudomonas putida [23] = experiment: Bactericidal activity against Pseudomonas putida MTCC 102 assessed as reduction of number of bacterial cells at 4 times MIC after 1 to 6 hrs; assay type: functional, organism-based
# Escherichia coli [24] = experiment: Bactericidal activity against Escherichia coli MTCC 1652 assessed as reduction of number of bacterial cells at 4 times MIC after 2 to 3 hrs; assay type: functional, organism-based
# Pseudomonas putida [25] = experiment: Bactericidal activity against Pseudomonas putida MTCC 102 assessed as reduction of number of bacterial cells at 4 times MIC after 2 to 3 hrs; assay type: functional, organism-based
# HeLa [26] = experiment: Induction of apoptosis in human HeLa cells assessed as formation of apoptotic nuclei formation at 10 uM after 24 hrs using propidium iodide staining by fluorescence microscopy analysis; assay type: functional, cell-based
Structure (SMILES),MIC (Staphylococcus aureus [1]),inhibition zone (IZ) (Staphylococcus aureus [2]),inhibition zone (IZ) (Bacillus subtilis [3]),MIC (Bacillus subtilis [4]),inhibition zone (IZ) (Escherichia coli [5]),MIC (Escherichia coli [6]),inhibition zone (IZ) (Pseudomonas putida [7]),MIC (Pseudomonas putida [8]),IC50 (HeLa [10]),IC50 (PC-3 [11]),IC50 (MDA-MB-231 [12]),IC50 (LNCaP [13]),IC50 (HEK-293T [14]),IC50 [15],IC50 (HeLa [16]),IC50 (PC-3 [17]),IC50 (MDA-MB-231 [18]),IC50 (LNCaP [19]),IC50 (HEK-293T [20]),IC50 [21],other results
COc1cc(NC(=O)c2csc(-c3c[nH]c4ccccc34)n2)cc(OC)c1OC,100 µg/mL,12 mm,14 mm,50 µg/mL,14 mm,50 µg/mL,13 mm,100 µg/mL,,,,,,,,,,,,,solubility [9]: Insoluble
COc1cc(NC(=O)c2csc(-c3c[nH]c4ccc(Br)cc34)n2)cc(OC)c1OC,50 µg/mL,15 mm,16 mm,12.5 µg/mL,14 mm,50 µg/mL,16 mm,12.5 µg/mL,55.8 µM,> 100 µM,> 100 µM,> 100 µM,32.8 µM,> 100 µM,93 µM,> 100 µM,> 100 µM,> 100 µM,> 100 µM,> 100 µM,
O=C(O)c1cn(C2CC2)c2cc(N3CCNCC3)c(F)cc2c1=O [CIPROFLOXACIN],,23 mm,24 mm,6.25 µg/mL,,,21 mm,12.5 µg/mL,,,,,,,,,,,,,
O=C(Nc1ccc(F)cc1)c1csc(-c2c[nH]c3ccccc23)n1,100 µg/mL,12 mm,10 mm,100 µg/mL,13 mm,100 µg/mL,12 mm,100 µg/mL,,,,,,,,,,,,,solubility [9]: Insoluble
Cc1ccc(NC(=O)c2csc(-c3c[nH]c4ccccc34)n2)cc1,,,,,12 mm,100 µg/mL,12 mm,100 µg/mL,> 100 µM,> 100 µM,> 100 µM,> 100 µM,> 100 µM,> 100 µM,> 100 µM,> 100 µM,> 100 µM,> 100 µM,> 100 µM,> 100 µM,
O=C(Nc1ccccc1)c1csc(-c2c[nH]c3ccccc23)n1,50 µg/mL,14 mm,,,13 mm,100 µg/mL,13 mm,100 µg/mL,> 100 µM,> 100 µM,79.4 µM,> 100 µM,> 100 µM,> 100 µM,> 100 µM,> 100 µM,> 100 µM,> 100 µM,41.1 µM,> 100 µM,
COc1ccc(NC(=O)c2csc(-c3c[nH]c4ccc(Br)cc34)n2)cc1,50 µg/mL,14 mm,15 mm,50 µg/mL,15 mm,12.5 µg/mL,16 mm,12.5 µg/mL,,,,,,,,,,,,,Activity (Escherichia coli [22]): Active; Activity (Pseudomonas putida [23]): Active; Activity (Escherichia coli [24]): Active; Activity (Pseudomonas putida [25]): Active; solubility [9]: Insoluble
COc1cc(NC(=O)c2csc(-c3c[nH]c4ccc(F)cc34)n2)cc(OC)c1OC,100 µg/mL,12 mm,10 mm,100 µg/mL,14 mm,50 µg/mL,14 mm,50 µg/mL,> 100 µM,89 µM,> 100 µM,> 100 µM,66 µM,> 100 µM,48.9 µM,> 100 µM,> 100 µM,88.5 µM,> 100 µM,> 100 µM,
COc1ccc(NC(=O)c2csc(-c3c[nH]c4ccccc34)n2)cc1,100 µg/mL,11 mm,12 mm,100 µg/mL,14 mm,50 µg/mL,12 mm,100 µg/mL,,,,,,,,,,,,,solubility [9]: Insoluble
COc1ccc(NC(=O)c2csc(-c3c[nH]c4ccccc34)n2)cc1OC,50 µg/mL,14 mm,14 mm,50 µg/mL,16 mm,25 µg/mL,16 mm,25 µg/mL,,,,,,,,,,,,,solubility [9]: Insoluble
O=C(NCc1ccccc1)c1csc(-c2c[nH]c3ccccc23)n1,,,,,13 mm,100 µg/mL,13 mm,100 µg/mL,9.51 µM,> 100 µM,> 100 µM,> 100 µM,74.5 µM,> 100 µM,41.4 µM,> 100 µM,> 100 µM,> 100 µM,> 100 µM,> 100 µM,
COc1cc(NC(=O)c2csc(-c3cn(Cc4ccc(Cl)cc4)c4ccccc34)n2)cc(OC)c1OC,100 µg/mL,13 mm,12 mm,100 µg/mL,15 mm,50 µg/mL,14 mm,100 µg/mL,91.4 µM,> 100 µM,> 100 µM,97.7 µM,> 100 µM,> 100 µM,> 100 µM,> 100 µM,> 100 µM,> 100 µM,58.7 µM,> 100 µM,
CN(C)c1ccc(NC(=O)c2csc(-c3c[nH]c4ccccc34)n2)cc1,100 µg/mL,13 mm,14 mm,50 µg/mL,12 mm,100 µg/mL,14 mm,50 µg/mL,,,,,,,,,,,,,solubility [9]: Insoluble
O=C(Nc1ccccc1)c1csc(-c2cn(Cc3ccc(Cl)cc3)c3ccccc23)n1,100 µg/mL,12 mm,13 mm,100 µg/mL,15 mm,50 µg/mL,15 mm,50 µg/mL,24.3 µM,76.4 µM,50.5 µM,64.1 µM,> 100 µM,> 100 µM,32.1 µM,> 100 µM,> 100 µM,68.9 µM,> 100 µM,> 100 µM,
COc1cccc2c1C(=O)c1c(O)c3c(c(O)c1C2=O)C[C@@](O)(C(=O)CO)C[C@@H]3O[C@H]1C[C@H](N)[C@H](O)[C@H](C)O1 [DOXORUBICIN],,,,,,,,,,7.65 µM,6.03 µM,6.46 µM,0.75 µM,0.57 µM,,9.8 µM,,7.4 µM,0.84 µM,1.02 µM,Activity (HeLa [26]): Active
COc1ccc(NC(=O)c2csc(-c3c[nH]c4ccc(F)cc34)n2)cc1,100 µg/mL,12 mm,13 mm,100 µg/mL,14 mm,50 µg/mL,13 mm,100 µg/mL,3.41 µM,> 100 µM,49.4 µM,66.4 µM,> 100 µM,> 100 µM,33.5 µM,> 100 µM,> 100 µM,75.4 µM,12.1 µM,> 100 µM,
COc1ccc(NC(=O)c2csc(-c3cn(Cc4ccc(Cl)cc4)c4ccccc34)n2)cc1,100 µg/mL,14 mm,15 mm,50 µg/mL,16 mm,12.5 µg/mL,16 mm,12.5 µg/mL,> 100 µM,> 100 µM,84.9 µM,> 100 µM,> 100 µM,> 100 µM,90.9 µM,> 100 µM,> 100 µM,> 100 µM,> 100 µM,> 100 µM,
